Reference: patent US4988677A, “Macrolide antibiotic and its use as a medicinal agent” (Hoechst Aktiengesellschaft, priority 1986, dated 1991)

Assays:
[1] = system: S. aureus 209P; experiment: MIC of swalpamycin, agar plate test; type: cell-based, Staphylococcus aureus
Description: (§1) The minimum inhibitory concentration (MIC) of swalpamycin has been determined for various microorganisms.

[2] = system: S. aureus 20424 Mac^R; experiment: MIC of swalpamycin, agar plate test; type: cell-based, Staphylococcus aureus; settings: S. aureus 20424 Mac^R (Mac = macrolide)
Description: (§2) The minimum inhibitory concentration (MIC) of swalpamycin has been determined for various microorganisms. The results are to be found in Table I which follows:
(§3) *Mac = macrolide, Em = erythromycin, Meth = methicillin

[3] = system: S. aureus 3066 Meth.^R; experiment: MIC of swalpamycin, agar plate test; type: cell-based, Staphylococcus aureus; settings: S. aureus 3066 Meth.^R (Meth = methicillin)
Description: as §2, §3

[4] = system: S. aureus 712 Meth^R; experiment: MIC of swalpamycin, agar plate test; type: cell-based, Staphylococcus aureus; settings: S. aureus 712 Meth^R (Meth = methicillin)
Description: as §2, §3

[5] = system: S. aureus 789 Meth.^R; experiment: MIC of swalpamycin, agar plate test; type: cell-based, Staphylococcus aureus; settings: S. aureus 789 Meth.^R (Meth = methicillin)
Description: as §2, §3

[6] = system: S. aureus MLS 11,Em^R; experiment: MIC of swalpamycin, agar plate test; type: cell-based, Staphylococcus aureus; settings: S. aureus MLS 11,Em^R (Em = erythromycin)
Description: as §2, §3

[7] = system: S. aureus MLS 14,Em^R; experiment: MIC of swalpamycin, agar plate test; type: cell-based, Staphylococcus aureus; settings: S. aureus MLS 14,Em^R (Em = erythromycin)
Description: as §2, §3

[8] = system: S. aureus MLS 16,Em^R; experiment: MIC of swalpamycin, agar plate test; type: cell-based, Staphylococcus aureus; settings: S. aureus MLS 16,Em^R (Em = erythromycin)
Description: as §2, §3

[9] = system: S. aureus R 85,Em^R; experiment: MIC of swalpamycin, agar plate test; type: cell-based, Staphylococcus aureus; settings: S. aureus R 85,Em^R (Em = erythromycin)
Description: as §2, §3

[10] = system: S. aureus R85/M, Em^R; experiment: MIC of swalpamycin, agar plate test; type: cell-based, Staphylococcus aureus; settings: Em^R (Em = erythromycin)
Description: as §2, §3

[11] = system: Strept. faecalis UD 86; experiment: MIC of swalpamycin, agar plate test; type: cell-based, Streptococcus faecalis
Description: as §1

[12] = system: Strept. faecalis Eder:Mac^R; experiment: MIC of swalpamycin, agar plate test; type: cell-based, Streptococcus faecalis; settings: Strept. faecalis Eder:Mac^R (Mac = macrolide)
Description: as §2, §3

[13] = system: Bacillus subtilis; experiment: MIC of swalpamycin, agar plate test; type: cell-based
Description: as §1

[14] = system: Candida albicans; experiment: MIC of swalpamycin, agar plate test; type: cell-based
Description: as §1

[15] = system: Cit. freundii; experiment: MIC of swalpamycin, agar plate test; type: cell-based
Description: as §1

[16] = system: E. coli 9632; experiment: MIC of swalpamycin, agar plate test; type: cell-based
Description: as §1

[17] = system: E. coli ESS 2231; experiment: MIC of swalpamycin, agar plate test; type: cell-based
Description: as §1

[18] = system: Ent. cloacae; experiment: MIC of swalpamycin, agar plate test; type: cell-based
Description: as §1

[19] = system: Micrococcus luteus; experiment: MIC of swalpamycin, agar plate test; type: cell-based
Description: as §1

[20] = system: Pr. vulgaris; experiment: MIC of swalpamycin, agar plate test; type: cell-based
Description: as §1

[21] = system: Prov. stuartii; experiment: MIC of swalpamycin, agar plate test; type: cell-based
Description: as §1

[22] = system: Ps. aeruginosa M 35; experiment: MIC of swalpamycin, agar plate test; type: cell-based
Description: as §1

[23] = system: Sarcina lutea; experiment: MIC of swalpamycin, agar plate test; type: cell-based
Description: as §1

[24] = system: Bacillus subtilis; experiment: laboratory agar plate tests, antimicrobial spectrum; type: cell-based; settings: strains of Bacillus subtilis
Description: as §1

[25] = system: Micrococcus luteus; experiment: as above; type: cell-based; settings: strains of Micrococcus luteus
Description: as §1

[26] = system: Mycoplasma gallinarum; experiment: as above; type: cell-based; settings: strains of Mycoplasma gallinarum
Description: as §1

[27] = system: Mycoplasma pulmonis; experiment: as above; type: cell-based; settings: strains of Mycoplasma pulmonis
Description: as §1

[28] = system: Sarcina lutea; experiment: as above; type: cell-based; settings: strains of Sarcina lutea
Description: as §1

[29] = system: Staphylococcus aureus; experiment: as above; type: cell-based; settings: sensitive and resistant strains of Staphylococcus aureus
Description: as §1

[30] = system: Streptococcus faecalis; experiment: as above; type: cell-based; settings: sensitive and resistant strains of Streptococcus faecalis
Description: as §1

[31] = system: Streptococcus pyogenes; experiment: as above; type: cell-based; settings: strains of Streptococcus pyogenes
Description: as §1

[32] = system: Gram-positive bacteria, including erythromycin-resistant strains; experiment: antibacterial activity; type: cell-based
Description: as §1

[33] = system: mycoplasma; experiment: antimycoplasma activity; type: cell-based
Description: as §1

[34] = solubility; type: physicochemical
Description: Swalpamycin is a colorless amorphous powder which is soluble in methanol, ethanol, n-propanol, isopropanol, n-butanol, ethyl acetate, n-butyl acetate, acetone, ethyl methyl ketone, methyl isobutyl ketone, methylene chloride, chloroform, dimethylformamide and dimethyl sulfoxide.

COC1C(OCC2/C=C/C=C/C(=O)C(C)CC(C)C(OC3OC(C)CC4(OC(=O)OC4C)C3O)C(C)/C=C/C(=O)OC2C)OC(C)C(O)C1OC (stereo not drawn) [Swalpamycin, swalpamycin]
minimum inhibitory concentration (MIC) [1]: 6.3 | minimum inhibitory concentration (MIC) [2]: 50 | minimum inhibitory concentration (MIC) [3]: 3.2 | minimum inhibitory concentration (MIC) [4]: 12.5 | minimum inhibitory concentration (MIC) [5]: > 50 | minimum inhibitory concentration (MIC) [6]: 25 | minimum inhibitory concentration (MIC) [7]: 25 | minimum inhibitory concentration (MIC) [8]: 12.5 | minimum inhibitory concentration (MIC) [9]: 12.5 | minimum inhibitory concentration (MIC) [10]: > 50 | minimum inhibitory concentration (MIC) [11]: > 50 | minimum inhibitory concentration (MIC) [12]: > 50 | minimum inhibitory concentration (MIC) [13]: 0.1 | minimum inhibitory concentration (MIC) [14]: > 50 | minimum inhibitory concentration (MIC) [15]: > 50 | minimum inhibitory concentration (MIC) [16]: > 50 | minimum inhibitory concentration (MIC) [17]: > 50 | minimum inhibitory concentration (MIC) [18]: > 50 | minimum inhibitory concentration (MIC) [19]: 1.6 | minimum inhibitory concentration (MIC) [20]: > 50 | minimum inhibitory concentration (MIC) [21]: > 50 | minimum inhibitory concentration (MIC) [22]: > 50 | minimum inhibitory concentration (MIC) [23]: 0.2 | antimicrobial activity in vitro [24]: acts in vitro | antimicrobial activity in vitro [25]: acts in vitro | antimicrobial activity in vitro [26]: acts in vitro | antimicrobial activity in vitro [27]: acts in vitro | antimicrobial activity in vitro [28]: acts in vitro | antimicrobial activity in vitro [29]: acts in vitro against sensitive and resistant strains | antimicrobial activity in vitro [30]: acts in vitro against sensitive and resistant strains | antimicrobial activity in vitro [31]: acts in vitro | activity [32]: active | activity [33]: active | solubility in hexane and petroleum ether ([34]; hexane, petroleum ether (40°-60°)): sparingly soluble or insoluble | solubility in organic solvents ([34]; methanol, ethanol, n-propanol, isopropanol, n-butanol, ethyl acetate, n-butyl acetate, acetone, ethyl methyl ketone, methyl isobutyl ketone, methylene chloride, chloroform, dimethylformamide, dimethyl sulfoxide): soluble | solubility in water ([34]; water): sparingly soluble or insoluble
